Structures can show the parent of a compound that is named as a salt. Where two headings read alike, the source gives them in different places.
Key:
Assay in all cases: Cell growth inhibition, Sulforhodamine B assay (SRB)
Format in all cases: cell-based
[1] = system: A549 lung cancer cell line; conditions: Homo sapiens, read-out: Cell Line GI50 Range A-549
Protocol: (§1) The cells were cultured for 5 days before the Sulforhodamine B assay (SRB) was performed to determine the compound's cell growth inhibition activity.
(§2) Sulforhodamine B (purchased from Sigma, Oakville, ON, Canada) is a water-soluble dye that binds to the basic amino acids of the cellular proteins. Thus, colorimetric measurement of the bound dye provides an estimate of the total protein mass that is related to the cell number. the cells are fixed in situ by gently aspirating off the culture media and adding 50 μl ice cold 10% Trichloroacetic Acid (TCA) per well and incubate at 4° C. for 30-60 min, The plates are washed with water five times and allowed to air dry for 5 min. […] Following staining, plates are washed four times with 1% acetic acid to remove unbound dye and then allowed to air dry for 5 min. […] Absorbance is read at 570 nm.
(§3) The percentage (%) of relative growth inhibition was calculated by comparing to DMSO treated only cells (100%). GI50's were determined for compounds with cytotoxic activity. The GI50 was calculated using GraphPad PRISM software (GraphPad Software, Inc., San Diego, Calif., USA).

[2] = system: HCC1954 basal breast cancer cell line; conditions: Homo sapiens
Protocol: as §1, §2, §3

[3] = system: MCF-7 luminal breast cancer cell line; conditions: Homo sapiens, MCF7, 120 h
Protocol: as §1, §2, §3

[4] = system: MDA-MB-468 basal breast cancer cell line; conditions: Homo sapiens, 5 days culture, SRB
Protocol: as §1, §2, §3

[5] = system: SW620 colon cancer cell line; conditions: Homo sapiens, SW-620, 120 h
Protocol: as §1, §2, §3

[6] = 120 h, A549 lung cancer cell line, 5 days culture, SRB
[7] = HCC1954, 120 h, HCC1954 basal breast cancer cell line, 5 days culture, SRB, read-out: Cell Line GI50 Range HCC-1954
[8] = MCF-7 luminal breast cancer cell line, 5 days culture, SRB, read-out: Cell Line GI50 Range MCF-7
[9] = 120 h, MDA-MB-468 basal breast cancer cell line, read-out: Cell Line GI50 Range MDA-MB-468
[10] = SW620 colon cancer cell line, 5 days culture, SRB, read-out: Cell Line GI50 Range SW-620
[11] = 120 h, HCC1954 basal breast cancer cell line, 5 days culture, SRB, read-out: Cell Line GI50 Range HCC-1954
[12] = HCC1954, 120 h, read-out: Cell Line GI50 Range HCC-1954
[13] = read-out: Cell Line GI50 Range MCF-7, MCF-7 luminal breast cancer cell line, 5 days culture, SRB
[14] = read-out: Cell Line GI50 Range SW-620, SW620 colon cancer cell line, 5 days culture, SRB

O=C1Nc2ncc(Br)cc2[C@@]12C[C@@H]2c1ccc2c(/C=C/c3cccnc3)n[nH]c2c1 (racemic) [Example A27, (1R*,2S*)-5′-bromo-2-(3-((E)-2-(pyridin-3-yl)vinyl)-1H-indazol-6-yl)spiro[cyclopropane-1,3′-pyrrolo[2,3-b]pyridin]-2′(1′H)-one] gave a GI50 [1, 6] of 1 to 10 µM, a GI50 [2, 7] of 1 to 10 µM and a GI50 [3, 8] of 1 to 10 µM. For the same compound, the GI50 [4, 9] was 0.1 to 1 µM and the GI50 [5, 10] was 1 to 10 µM.

For O=C1Nc2ccccc2[C@@]12C[C@@H]2c1ccc2c(/C=C/c3cccnc3)n[nH]c2c1 (racemic) [Example A28, (1R*,2S*)-2-(3-((E)-2-(pyridin-3-yl)vinyl)-1H-indazol-6-yl)spiro-[cyclopropane-1,3′-indolin]-2′-one], the GI50 [1, 6] was 1 to 10 µM, the GI50 [2, 7] was 1 to 10 µM and the GI50 [3, 8] was 1 to 10 µM.

In the case of COc1ccc2c(c1)[C@@]1(C[C@@H]1c1ccc3c(-c4ccnc(N5CCN(C)CC5)c4)n[nH]c3c1)C(=O)N2 (racemic) [Example A37, (1R*,2S*)-5′-Methoxy-2-(3-(2-(4-methylpiperazin-1-yl)pyridin-4-yl)-1H-indazol-6-yl)spiro[cyclopropane-1,3′-indolin]-2′-one], the GI50 [1, 6] is reported as < 0.1 µM, the GI50 [2, 11] is reported as > 10 µM and the GI50 [3, 8] is reported as > 10 µM. The GI50 [4, 9] was 0.1 to 1 µM and the GI50 [5, 10] was < 0.1 µM.

In the case of COc1ccc2c(c1)[C@@]1(C[C@@H]1c1ccc3c(-c4ccc(N5CCN(C)CC5)cc4)n[nH]c3c1)C(=O)N2 (racemic) [Example A38, (1R*,2S*)-5′-Methoxy-2-(3-(4-(4-methylpiperazin-1-yl)phenyl)-1H-indazol-6-yl)spiro[cyclopropane-1,3′-indolin]-2′-one], the GI50 ([1]; A549, 120 h) is reported as < 0.1 µM, the GI50 ([2]; HCC1954, 120 h, read-out: Cell Line GI50 Range HCC-1954, HCC1954 basal breast cancer cell line, 5 days culture, SRB) is reported as > 10 µM and the GI50 ([3]; read-out: Cell Line GI50 Range MCF-7) is reported as 0.1 to 1 µM. The GI50 ([4]; MDA-MB-468, 120 h, read-out: Cell Line GI50 Range MDA-MB-468, MDA-MB-468 basal breast cancer cell line) was < 0.1 µM and the GI50 ([5]; read-out: Cell Line GI50 Range SW-620) was 0.1 to 1 µM.

With COc1ccc2c(c1)[C@@]1(C[C@@H]1c1ccc3c(-c4cccc(CO)c4)n[nH]c3c1)C(=O)N2 (racemic) [Example A43, (1R*,2S*)-2-(3-(3-(hydroxymethyl)phenyl)-1H-indazol-6-yl)-5′-methoxy spiro[cyclopropane-1,3′-indolin]-2′-one 2,2,2-trifluoroacetate] the GI50 [1, 6] was 1 to 10 µM, the GI50 [2, 11] was > 10 µM and the GI50 [3, 8] was 1 to 10 µM. The GI50 [4, 9] was 1 to 10 µM and the GI50 [5, 10] was 1 to 10 µM.

With COc1ccc2c(c1)[C@@]1(C[C@@H]1c1ccc3c(-c4ccc(CO)cc4)n[nH]c3c1)C(=O)N2 (racemic) [Example A45, (1R*,2S*)-2-(3-(4-(hydroxymethyl)phenyl)-1H-indazol-6-yl)-5′-methoxyspiro[cyclopropane-1,3′-indolin]-2′-one 2,2,2-trifluoroacetate] the GI50 [1, 6] was 0.1 to 1 µM, the GI50 [2, 11] was > 10 µM and the GI50 [3, 8] was 1 to 10 µM. It also gave a GI50 [4, 9] of 0.1 to 1 µM and a GI50 [5, 10] of 1 to 10 µM.

In the case of COc1ccc2c(c1)[C@@]1(C[C@@H]1c1ccc3c(-c4cccc(N5CCNCC5)c4)n[nH]c3c1)C(=O)N2 (racemic) [Example A47, (1R*,2S*)-5′-methoxy-2-(3-(3-(piperazin-1-yl)phenyl)-1H-indazol-6-yl)spiro[cyclopropane-1,3′-indolin]-2′-one 2,2,2-trifluoroacetate], the GI50 [1, 6] is reported as 1 to 10 µM, the GI50 [2, 7] is reported as 1 to 10 µM and the GI50 [3, 8] is reported as 1 to 10 µM. The GI50 [4, 9] was 1 to 10 µM and the GI50 [5, 10] was 1 to 10 µM.

COc1ccc2c(c1)[C@]1(C[C@H]1c1ccc3c(/C=C/c4ccc(CN5CCCCC5)nc4)n[nH]c3c1)C(=O)N2 (racemic) [Example A62, (1R,2S)-(E)-5′-methoxy-2-(3-((E)-2-(6-(piperidin-ylmethyl)pyridin-3-yl)vinyl)-1H-indazol-6-yl)spiro[cyclopropane-1,3′-indolin]-2′-one 2,2,2-trifluoroacetate salt] showed a GI50 [2, 12] of 1 to 10 µM.

In the case of CN1C(=O)[C@@]2(C[C@H]2c2ccc3c(/C=C/c4ccc(CN5CCOCC5)cc4)n[nH]c3c2)c2ccccc21 (racemic) [Example A87, (1R*,2S*)-(E)-1′-methyl-2-(3-(4-(morpholinomethyl)styryl)-1H-indazol-6-yl)spiro[cyclopropane-1,3′-indolin]-2′-one 2,2,2-trifluoroacetate], the GI50 [1, 6] is reported as < 0.1 µM, the GI50 [2, 7] is reported as 1 to 10 µM and the GI50 [3, 8] is reported as < 0.1 µM. The GI50 [4, 9] was < 0.1 µM and the GI50 [5, 10] was 0.1 to 1 µM.

COc1ccc2c(c1)[C@@]1(C[C@@H]1c1ccc3c(-c4ccc(N5CCN(C)CC5)cc4)n[nH]c3c1)C(=O)N2C (racemic) [Example A100, (1R*,2S*)-5′-methoxy-1′-methyl-2-(3-(4-(4-methylpiperazin-1-yl)phenyl)-1H-indazol-6-yl)spiro[cyclopropane-1,3′-indolin]-2′-one 2,2,2-trifluoroacetate] was tested, and the GI50 [1, 6] was < 0.1 µM, the GI50 [2, 11] was 1 to 10 µM and the GI50 [3, 8] was 0.1 to 1 µM. The GI50 [4, 9] was 0.1 to 1 µM and the GI50 [5, 10] was < 0.1 µM.

With NS(=O)(=O)c1cccc(-c2n[nH]c3cc([C@@H]4C[C@@]45C(=O)Nc4ccccc45)ccc23)c1 (racemic) [Example A130, 3-(6-((1R*,2S*)-2′-oxospiro[cyclopropane-1,3′-indoline]-2-yl)-1H-indazol-3-yl)benzenesulfonamide] the GI50 [1, 6] was > 10 µM, the GI50 [2, 11] was > 10 µM and the GI50 [3, 8] was 1 to 10 µM. The GI50 [4, 9] was 1 to 10 µM and the GI50 [5, 10] was > 10 µM.

In the case of COc1ccc2c(c1)[C@]1(C[C@H]1c1ccc3c(/C=C/c4cccc(CN5CCOCC5)c4)n[nH]c3c1)C(=O)N2 (racemic) [Example A133, (1R*,2S*)-5′-methoxy-2-(3-(3-(morpholinomethyl)styryl)-1H-indazol-6-yl)spiro[cyclopropane-1,3′-indolin]-2′-one 2,2,2-trifluoroacetate], the GI50 [2, 11] is reported as > 10 µM, the GI50 [3, 8] is reported as < 0.1 µM and the GI50 [5, 10] is reported as 0.1 to 1 µM.

In the case of COc1ccc2c(c1)[C@]1(C[C@H]1c1ccc3c(/C=C/c4cccc(CN(C)C)c4)n[nH]c3c1)C(=O)N2 (racemic) [Example A135, (1R*,2S*)-2-(3-(3-((dimethylamino)methyl)styryl)-1H-indazol-6-yl)-5′-methoxyspiro[cyclopropane-1,3′-indolin]-2′-one 2,2,2-trifluoroacetate], the GI50 [2, 7] is reported as > 10 µM and the GI50 [5, 10] is reported as 0.1 to 1 µM.

Cc1ccc2c(c1)[C@@]1(C[C@@H]1c1ccc3c(-c4ccc(N5CCN(C)CC5)cc4)n[nH]c3c1)C(=O)N2 (racemic) [Example A173, (1R*,2S*)-5′-methyl-2-(3-(4-(4-methylpiperazin-1-yl)phenyl)-1H-indazol-6-yl)spiro[cyclopropane-1,3′-indolin]-2′-one 2,2,2-trifluoroacetate] was tested, and the GI50 [1, 6] was 0.1 to 1 µM, the GI50 [2, 11] was 0.1 to 1 µM and the GI50 [3, 8] was 0.1 to 1 µM. It also gave a GI50 [4, 9] of 0.1 to 1 µM and a GI50 [5, 10] of 0.1 to 1 µM.

In the case of O=C1Nc2ccc(F)cc2[C@@]12C[C@@H]2c1ccc2c(/C=C/c3ccc(CN4CCOCC4)cc3)n[nH]c2c1 (racemic) [Example A219, (1R*,2S*)-(E)-5′-fluoro-2-(3-(4-(morpholinomethyl)styryl-1H-indazol-6-yl)spiro[cyclopropane-1,3′-indolin]-2′-one 2,2,2-trifluoroacetate], the GI50 [2, 12] is reported as 0.1 to 1 µM and the GI50 [3, 13] is reported as 0.1 to 1 µM.

In the case of COc1ccc2c(c1)[C@]1(CC1c1ccc3c(/C=C/c4ccc(CN5C[C@@H](C)O[C@@H](C)C5)cc4)n[nH]c3c1)C(=O)N2 (relative stereo) [Example A186, (1R*,2S*)-(E)-2-(3-(4-trans-2,6-dimethylmorpholino)methyl)styryl)-1H-indazol-6-yl)-5′-methoxspiro[cyclopropane-1,3′-indolin]-2′-one 2,2,2-trifluoroacetate], the GI50 [2, 11] is reported as 1 to 10 µM.

CCN(CC)Cc1ccc(/C=C/c2n[nH]c3cc([C@@H]4C[C@@]45C(=O)Nc4ccccc45)ccc23)cc1 (relative stereo) [Example A211, (1R*,2S*)-(E)-2-(3-(4-((diethylamino)methyl)styryl)-1H-indazol-6-yl)spiro-[cyclopropane-1,3′-indolin]-2′-one 2,2,2-trifluoroacetate] gave a GI50 [3, 13] of 0.1 to 1 µM and a GI50 [5, 14] of 0.1 to 1 µM.

With CN(C)Cc1ccc(/C=C/c2n[nH]c3cc([C@@H]4C[C@@]45C(=O)Nc4ccccc45)ccc23)cc1 [Example A24, (1R,2S)-(E)-2-(3-(4-((dimethylamino)methyl)styryl)-1H-indazol-6-yl)spiro[cyclopropane-1,3′-indolin]-2′-one 2,2,2-trifluoroacetate] the GI50 [5, 14] was < 0.1 µM.

— patent US8481525B2, “Kinase inhibitors and method of treating cancer with same” (University of Health Network, priority 2009, dated 2013)
